These results are taken from patent US11479525B2, “Propenylamines and methods of making and using same” (3M INNOVATIVE PROPERTIES COMPANY, priority 2016, dated 2022).

Each structure is given as a SMILES string.

This series in a line: Atmospheric lifetime from the rate of reaction with hydroxyl radicals, relative to reference compounds (FTIR gas cell). It is filed as physicochemical. The note with it: gas phase reaction with hydroxyl radical relative to chloromethane/ethane; for Atmospheric Lifetime, E-isomer: E-isomer of the 1-propenylamine; for Atmospheric Lifetime, Z-isomer: Z-isomer of the 1-propenylamine. On the procedure: The atmospheric lifetimes of 1-propenylamines were determined from their rate of reaction with hydroxyl radicals. The pseudo-first order rates for the reaction of the gaseous 1-propenylamines with hydroxyl radical were measured in a series of experiments relative to reference compounds such as chloromethane and ethane. The measurements were performed in a 5.7 L, heated FTIR gas cell equipped with a polished semiconductor-grade quartz window. An Oriel Instruments UV Lamp, Model 66921 equipped with a 480 W mercury-xenon bulb was used to generate hydroxyl radicals by photolyzing ozone in the presence of water vapor. The concentrations of the 1-propenylamine and the reference compound were measured as a function of reaction time using an I-Series FTIR from Midac Corporation. The atmospheric lifetimes were calculated from the reaction rates for the 1-propenylamines relative to the reference compounds and the reported lifetime of the reference compounds as shown below:
[formula] where τx is the atmospheric lifetime of the 1-propenylamine, τr is the atmospheric lifetime of the reference compound, and kx and kr are the rate constants for the reaction of hydroxyl radical with the isomeric 1-propenylamines and the reference compound, respectively.

For the compound `FC(=C(F)C(F)(F)F)N(C(F)(F)F)C(F)(F)F` [(CF3)2N—CF═CFCF3, 1,2,3,3,3-pentafluoro-N,N-bis(trifluoromethyl)prop-1-en-1-amine], the “Atmospheric Lifetime, E-isomer” value came to 0.71 Yrs and the “Atmospheric Lifetime, Z-isomer” value is listed as 1.9 Yrs.

`FC(=C(F)C(F)(F)F)N(C(F)(F)F)C(F)(F)C(F)(F)F` [C2F5(CF3)N—CF═CFCF3]: the “Atmospheric Lifetime, E-isomer” value is on record as 1.4 Yrs and the “Atmospheric Lifetime, Z-isomer” value came to 3.5 Yrs.
